Source: US20240384268A1, “Oligonucleotides” (Hudson Institute of Medical Research, priority 2021, published 2024)
In the oligonucleotide strings, read from the 5' end, every base follows the letter of its sugar. An asterisk marks phosphorothioate; unmarked linkages are phosphodiester. Other units and linkages are bracketed, terminal groups are in braces. A string of capitals states the bases alone. d = 2'-deoxy (DNA); m = 2'-O-methyl

Legend:
TLR8 [1] = biological target: T1, TLR8 (Homo sapiens, UniProt Q9NR97); assay: R848-driven IP-10 production in THP-1 cells (TLR8); assay type: cell-based; design: expressed in transfected cells; details: 3mer 2'OMe ASO at 1 uM; raw values, Ligand only = 355.752, NT = 134.831;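 note: IP-10 by ELISA in supernatant after 7 h R848 stimulation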
T1 sequence (Q9NR97 27-1041): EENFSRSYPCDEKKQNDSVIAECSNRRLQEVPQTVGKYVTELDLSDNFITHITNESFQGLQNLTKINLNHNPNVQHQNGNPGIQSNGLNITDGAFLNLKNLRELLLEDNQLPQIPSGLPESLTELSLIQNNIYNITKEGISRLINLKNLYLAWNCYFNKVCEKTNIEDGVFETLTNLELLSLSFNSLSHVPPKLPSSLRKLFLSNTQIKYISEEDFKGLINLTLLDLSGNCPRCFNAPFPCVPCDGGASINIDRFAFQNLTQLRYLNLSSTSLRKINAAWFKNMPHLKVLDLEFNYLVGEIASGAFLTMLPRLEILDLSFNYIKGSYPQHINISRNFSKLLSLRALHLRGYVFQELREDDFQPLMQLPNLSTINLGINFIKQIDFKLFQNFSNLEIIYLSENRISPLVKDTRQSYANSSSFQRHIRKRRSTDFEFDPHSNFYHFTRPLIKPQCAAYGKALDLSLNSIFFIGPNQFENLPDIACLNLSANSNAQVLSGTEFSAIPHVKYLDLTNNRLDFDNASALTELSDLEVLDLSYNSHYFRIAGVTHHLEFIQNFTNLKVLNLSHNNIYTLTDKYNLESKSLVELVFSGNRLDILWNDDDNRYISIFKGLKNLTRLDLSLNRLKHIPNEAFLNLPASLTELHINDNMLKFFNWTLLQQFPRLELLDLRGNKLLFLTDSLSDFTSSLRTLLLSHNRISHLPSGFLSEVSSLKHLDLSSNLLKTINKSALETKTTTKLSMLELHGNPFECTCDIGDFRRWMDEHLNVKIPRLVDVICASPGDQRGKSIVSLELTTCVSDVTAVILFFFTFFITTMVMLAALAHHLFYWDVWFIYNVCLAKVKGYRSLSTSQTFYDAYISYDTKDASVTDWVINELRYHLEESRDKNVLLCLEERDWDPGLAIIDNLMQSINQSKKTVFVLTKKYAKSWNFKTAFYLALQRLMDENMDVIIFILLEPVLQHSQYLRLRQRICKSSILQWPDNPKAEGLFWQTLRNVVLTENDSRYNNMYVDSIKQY

TLR8 [2] = biological target: T1, TLR8; assay: HEK-TLR8 NF-κB-luciferase reporter, R848 or Motolimod stimulation (potentiation or inhibition); assay type: cell-based; design: expressed in transfected cells; host or cells: 293XLhTLR8 (HEK293); details: HEK-TLR8; for TLR8 HEK 5 uM: 3mer 2'OMe ASO at 5 uM, value relative to Ligand only = 1.000, NT = 0.000; for effect of 3-mer 2′OMe PS oligos on TLR8 sensing in HEK-TLR8 (in words): 5 μM naked 3-mer, Motolimod

With “dC*dA*dC (CAC; listed as RNA, chemistry not fully specified)” the “TLR8 1 uM” value (TLR8 [1]) was 344.415 and the “TLR8 HEK 5 uM” value (TLR8 [2]) was 0.809.

“dC*dC*dA (CCA; listed as DNA, chemistry not fully specified)” was tested, and the “TLR8 1 uM” value (TLR8 [1]) was 181.239 and the “TLR8 HEK 5 uM” value (TLR8 [2]) was 0.946.

With “dC*dC*dC (CCC; listed as DNA, chemistry not fully specified)” the “TLR8 1 uM” value (TLR8 [1]) was 181.399 and the “TLR8 HEK 5 uM” value (TLR8 [2]) was 0.756.

“dC*dC*dG (CCG; listed as DNA, chemistry not fully specified)” was tested, and the “TLR8 1 uM” value (TLR8 [1]) was 437.264 and the “TLR8 HEK 5 uM” value (TLR8 [2]) was 0.899.

In the case of “dC*dG*dA (CGA; listed as DNA, chemistry not fully specified)”, the “TLR8 1 uM” value (TLR8 [1]) is reported as 504.099 and the “TLR8 HEK 5 uM” value (TLR8 [2]) is reported as 1.512.

dG*dC*dC [GCC] was tested, and the “TLR8 1 uM” value (TLR8 [1]) was 209.536 and the “TLR8 HEK 5 uM” value (TLR8 [2]) was 0.701.

In the case of dG*dC*dG [GCG], the “TLR8 1 uM” value (TLR8 [1]) is reported as 290.409 and the “TLR8 HEK 5 uM” value (TLR8 [2]) is reported as 1.191.

With “mAmUmC (mA*mU*mC) [AUC, 3-mer 2′OMe PS oligo]” the “TLR8 1 uM” value (TLR8 [1]) was 181.793 and the “TLR8 HEK 5 uM” value (TLR8 [2]) was 0.674.

mCmUmU (antisense mC*mU*mU) [660-3] was tested, and the “TLR8 1 uM” value (TLR8 [1]) was 167.148 and the “TLR8 HEK 5 uM” value (TLR8 [2]) was 0.712.

In the case of “mGmAmU (mG*mA*mU) [GAU, 3-mer 2′OMe PS oligo]”, the “TLR8 1 uM” value (TLR8 [1]) is reported as 147.162, the “TLR8 HEK 5 uM” value (TLR8 [2]) is reported as 0.528 and the “effect of 3-mer 2′OMe PS oligos on TLR8 sensing in HEK-TLR8 (in words)” value (“effect of 3-mer 2′OMe PS oligos” for short) (TLR8 [2]) is reported as “robustly the most potent”.

“mGmUmA (GUA; all 2'-O-methyl, backbone not given here; further chemistry not fully specified) [shortMut1-3b]” was tested, and the “TLR8 1 uM” value (TLR8 [1]) was 133.537, the “TLR8 HEK 5 uM” value (TLR8 [2]) was 0.792 and the “effect of 3-mer 2′OMe PS oligos” value (TLR8 [2]) was “robustly inhibitory”.

In the case of “mGmUmC (mG*mU*mC) [GUC, 3-mer 2′OMe PS oligo]”, the “TLR8 1 uM” value (TLR8 [1]) is reported as 131.948, the “TLR8 HEK 5 uM” value (TLR8 [2]) is reported as 0.763 and the “effect of 3-mer 2′OMe PS oligos” value (TLR8 [2]) is reported as “robustly inhibitory”.

With “mGmUmG (mG*mU*mG) [GUG, 3-mer 2′OMe PS oligo]” the “TLR8 1 uM” value (TLR8 [1]) was 158.982, the “TLR8 HEK 5 uM” value (TLR8 [2]) was 0.882 and the “effect of 3-mer 2′OMe PS oligos” value (TLR8 [2]) was “robustly inhibitory”.

In the case of “mGmUmU (mG*mU*mU) [GUU, 3-mer 2′OMe PS oligo]”, the “TLR8 1 uM” value (TLR8 [1]) is reported as 166.278, the “TLR8 HEK 5 uM” value (TLR8 [2]) is reported as 0.668 and the “effect of 3-mer 2′OMe PS oligos” value (TLR8 [2]) is reported as “robustly inhibitory”.

With “mUmCmA (mU*mC*mA) [UCA, 3-mer 2′OMe PS oligo]” the “TLR8 1 uM” value (TLR8 [1]) was 1049.345 and the “TLR8 HEK 5 uM” value (TLR8 [2]) was 1.115.

With mUmCmG (antisense mU*mC*mG) [660-3b] the “TLR8 1 uM” value (TLR8 [1]) was 746.272, the “TLR8 HEK 5 uM” value (TLR8 [2]) was 2.839 and the “effect of 3-mer 2′OMe PS oligos” value (TLR8 [2]) was “potentiated the sensing of R848”.

With “mUmGmA (mU*mG*mA) [UGA, 3-mer 2′OMe PS oligo]” the “TLR8 1 uM” value (TLR8 [1]) was 267.234 and the “TLR8 HEK 5 uM” value (TLR8 [2]) was 1.331.

In the case of “mUmGmG (mU*mG*mG) [UGG, 3-mer 2′OMe PS oligo]”, the “TLR8 1 uM” value (TLR8 [1]) is reported as 527.575, the “TLR8 HEK 5 uM” value (TLR8 [2]) is reported as 1.860 and the “effect of 3-mer 2′OMe PS oligos” value (TLR8 [2]) is reported as “potentiated the sensing of R848”.
